Data as given in patent US20170273307A1, “SILANE-BASED ANTIMICROBIAL COATINGS AND METHODS OF MAKING AND USING THE SAME” (Trent University, priority 2016, published 2017).

Experiment: Hydrolysis study of the silane by 1H NMR in D2O
Type: physicochemical
Description: Hydrolysis of the antimicrobial silanes to activate their surface bonding, an essential step in the coating process, were examined by ^1H NMR in D2O. In a typical experiment, approximately 10 mg of the trimethoxy-hydantoin containing silane was added to D2O and the first was acquired within 2 minutes of the addition. The evolution of methanol with time was measured by acquisition of subsequent incremental spectra on the same sample. Due to the limited solubility of these compounds in water, the amount of methanol hydrolysis product detected, in relation to an internal standard (residual H2O in D2O) was used.
Hydrolysis of the modified alkyloxysilanes is important for their reactivity and adhesion to surfaces. Knowing the rate of hydrolysis allows control over the mixing time and catalyst/acid content required before a coating will optimally bind to a substrate. To better understand the mechanisms of hydrolysis, a simple method of placing the silane in a solvent, such as D2O (deuterated water), and look for a characteristic methanol peak in NMR analysis, which will occur when the methanol is cleaved off by the hydrolysis from the D2O. […] After 2 minutes (the fastest the sample could be analyzed on NMR after mixing), a sharp, distinct methanol peak appears at 3.34 ppm (FIG. 4).

## CO[Si](CCCn1cc(CN2C(=O)NC(C)(C)C2=O)nn1)(OC)OC [the silane]
Approximately 10 mg in D2O
  solubility in D2O: not completely soluble
In D2O, after 2 minutes
  integration value of methanol peak (3.34 ppm) compared with D2O set as 1: 0.24
In D2O, spectra recorded every 2 minutes
  time to plateau of methanol peak integration: 10 min
In D2O, uncatalysed, methanol release by 1H NMR
  time to nearly complete hydrolysis: less than 2 minutes
